From patent publication US20260285850A1, “SUBSTITUTED OXAZOLIDINONES AND IMIDAZOLINONES AS HERBICIDES” (FMC CORPORATION, priority 2023, published 2026)

What was measured:
Assay type in all cases: in vivo
[1] = tested on: ducksalad (Heteranthera limosa); assay: Test B flooded paddy test, visual plant response rating 0-100; conditions: 250 g ai/ha, Flood, applied to paddy water, evaluated after 13 days
How it was run: (§1)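 Each species was raised to two leaves before flooding to a 3 cm depth and dosing the water with compound. Injury was assessed by eye after 13 days under greenhouse conditions.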

[2] = tested on: sedge, umbrella (small-flower umbrella sedge, Cyperus difformis); assay: as above; conditions: 250 g ai/ha, Flood, applied to paddy water, evaluated after 13 days
How it was run: as §1

[3] = tested on: barnyardgrass (Echinochloa crusgalli); assay: as above; conditions: 250 g ai/ha, Flood, applied to paddy water, evaluated after 13 days
How it was run: as §1

rice (Oryza sativa) = assay: as above; conditions: 250 g ai/ha, Flood, applied to paddy water, evaluated after 13 days
How it was run: as §1

[4] = tested on: wheat (Triticum aestivum); assay: Test A postemergence application, visual injury rating 0-100; conditions: Postemergence, 10 days, 0 is no effect, 100 is complete control
How it was run: (§2)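 Grow plants in loam soil blended with sand. Apply formulated compound (non-phytotoxic solvent, surfactant) as a directed soil spray before emergence, or to plants at the one- to two-leaf stage after emergence. Hold in greenhouse 10 days, then rate injury visually versus untreated controls on a 0-100 scale.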

[5] = tested on: ragweed (common ragweed, Ambrosia artemisiifolia); assay: as above; conditions: Postemergence, 10 days, 0 is no effect, 100 is complete control
How it was run: as §2

[6] = tested on: green foxtail (Setaria viridis); assay: as above; conditions: Postemergence, 10 days, 0 is no effect, 100 is complete control
How it was run: as §2

[7] = tested on: galium (catchweed bedstraw, Galium aparine); assay: as above; conditions: Postemergence, 10 days, 0 is no effect, 100 is complete control
How it was run: as §2

soybean (Glycine max) [8] = assay: as above; conditions: Postemergence, 10 days, 0 is no effect, 100 is complete control
How it was run: as §2

[9] = tested on: horseweed (Erigeron canadensis); assay: as above; conditions: Postemergence, 10 days, 0 is no effect, 100 is complete control
How it was run: as §2

[10] = tested on: blackgrass (Alopecurus myosuroides); assay: as above; conditions: Postemergence, 10 days, 0 is no effect, 100 is complete control
How it was run: as §2

[11] = tested on: barnyardgrass (Echinochloa crus-galli); assay: as above; conditions: Postemergence, 10 days, 0 is no effect, 100 is complete control
How it was run: as §2

kochia (Bassia scoparia) [12] = assay: as above; conditions: Postemergence, 10 days, 0 is no effect, 100 is complete control
How it was run: as §2

[13] = tested on: ryegrass, Italian (italian ryegrass, Lolium multiflorum); assay: as above; conditions: Postemergence, 10 days, 0 is no effect, 100 is complete control
How it was run: as §2

[14] = tested on: palmer (palmer amaranth, palmer pigweed, Amaranthus palmeri); assay: as above; conditions: Postemergence, 10 days, 0 is no effect, 100 is complete control
How it was run: as §2

corn (Zea mays) [15] = assay: as above; conditions: Postemergence, 10 days, 0 is no effect, 100 is complete control
How it was run: as §2

[16] = tested on: oat, wild (wild oat, Avena fatua); assay: as above; conditions: Postemergence, 10 days, 0 is no effect, 100 is complete control
How it was run: as §2

[17] = tested on: wheat (Triticum aestivum); assay: Test A preemergence soil spray, visual injury rating 0-100; conditions: 10 days, 0 = no effect, 100 = complete control
How it was run: as §2

[18] = tested on: ragweed (common ragweed, Ambrosia artemisiifolia); assay: as above; conditions: 10 days, 0 = no effect, 100 = complete control
How it was run: as §2

[19] = tested on: green foxtail (Setaria viridis); assay: as above; conditions: 10 days, 0 = no effect, 100 = complete control
How it was run: as §2

soybean (Glycine max) [20] = assay: as above; conditions: 10 days, 0 = no effect, 100 = complete control
How it was run: as §2

[21] = tested on: blackgrass (Alopecurus myosuroides); assay: as above; conditions: 10 days, 0 = no effect, 100 = complete control
How it was run: as §2

[22] = tested on: barnyardgrass (Echinochloa crus-galli); assay: as above; conditions: 10 days, 0 = no effect, 100 = complete control
How it was run: as §2

kochia (Bassia scoparia) [23] = assay: as above; conditions: 10 days, 0 = no effect, 100 = complete control
How it was run: as §2

[24] = tested on: ryegrass, Italian (italian ryegrass, Lolium multiflorum); assay: as above; conditions: 10 days, 0 = no effect, 100 = complete control
How it was run: as §2

[25] = tested on: palmer (palmer amaranth, palmer pigweed, Amaranthus palmeri); assay: as above; conditions: 10 days, 0 = no effect, 100 = complete control
How it was run: as §2

corn (Zea mays) [26] = assay: as above; conditions: 10 days, 0 = no effect, 100 = complete control
How it was run: as §2

[27] = tested on: oat, wild (wild oat, Avena fatua); assay: as above; conditions: 10 days, 0 = no effect, 100 = complete control
How it was run: as §2

CC(C)OC(=O)C1C=CC(NC(=O)C2(C)CN(c3cc(Cl)cc(Cl)c3)C(=O)O2)C1 (stereo not shown) [Compound 43]
Plant response rating, Ducksalad (0 to 100 scale, 0 is no effect and 100 is complete control) [1]: 90 | Plant response rating, Sedge, Umbrella (0 to 100 scale, 0 is no effect and 100 is complete control) [2]: 95 | Plant response rating, Barnyardgrass (0 to 100 scale, 0 is no effect and 100 is complete control) [3]: 85 | Plant response rating, Rice (0 to 100 scale, 0 is no effect and 100 is complete control) (rice (Oryza sativa)): 20 | Wheat plant response rating (0 to 100 scale) ([4]; 125 g ai/ha): 90 | Wheat plant response rating (0 to 100 scale) ([4]; 500 g ai/ha): 90 | Ragweed plant response rating (0 to 100 scale) ([5]; 125 g ai/ha): 60 | Ragweed plant response rating (0 to 100 scale) ([5]; 500 g ai/ha): 80 | Foxtail, Green plant response rating (0 to 100 scale) ([6]; 125 g ai/ha): 90 | Foxtail, Green plant response rating (0 to 100 scale) ([6]; 500 g ai/ha): 90 | Galium plant response rating (0 to 100 scale) ([7]; 125 g ai/ha): 70 | Galium plant response rating (0 to 100 scale) ([7]; 500 g ai/ha): 70 | Soybean plant response rating (0 to 100 scale) (soybean (Glycine max) [8]; 125 g ai/ha): 80 | Soybean plant response rating (0 to 100 scale) (soybean (Glycine max) [8]; 500 g ai/ha): 80 | Horseweed plant response rating (0 to 100 scale) ([9]; 125 g ai/ha): 60 | Horseweed plant response rating (0 to 100 scale) ([9]; 500 g ai/ha): 80 | Blackgrass plant response rating (0 to 100 scale) ([10]; 125 g ai/ha): 100 | Blackgrass plant response rating (0 to 100 scale) ([10]; 500 g ai/ha): 100 | Barnyardgrass plant response rating (0 to 100 scale) ([11]; 125 g ai/ha): 100 | Barnyardgrass plant response rating (0 to 100 scale) ([11]; 500 g ai/ha): 100 | Kochia plant response rating (0 to 100 scale) (kochia (Bassia scoparia) [12]; 125 g ai/ha): 80 | Kochia plant response rating (0 to 100 scale) (kochia (Bassia scoparia) [12]; 500 g ai/ha): 80 | Ryegrass, Italian plant response rating (0 to 100 scale) ([13]; 125 g ai/ha): 90 | Ryegrass, Italian plant response rating (0 to 100 scale) ([13]; 500 g ai/ha): 90 | Amaranth, Palmer / Pigweed, Palmer plant response rating (0 to 100 scale) ([14]; 125 g ai/ha): 100 | Amaranth, Palmer / Pigweed, Palmer plant response rating (0 to 100 scale) ([14]; 500 g ai/ha): 100 | Corn plant response rating (0 to 100 scale) (corn (Zea mays) [15]; 125 g ai/ha): 100 | Corn plant response rating (0 to 100 scale) (corn (Zea mays) [15]; 500 g ai/ha): 100 | Oat, Wild plant response rating (0 to 100 scale) ([16]; 125 g ai/ha): 90 | Oat, Wild plant response rating (0 to 100 scale) ([16]; 500 g ai/ha): 90 | Wheat plant response rating (0 to 100 scale) ([17]; 125 g ai/ha): 90 | Wheat plant response rating (0 to 100 scale) ([17]; 500 g ai/ha): 90 | Ragweed plant response rating (0 to 100 scale) ([18]; 125 g ai/ha): 30 | Ragweed plant response rating (0 to 100 scale) ([18]; 500 g ai/ha): 80 | Foxtail, Green plant response rating (0 to 100 scale) ([19]; 125 g ai/ha): 90 | Foxtail, Green plant response rating (0 to 100 scale) ([19]; 500 g ai/ha): 100 | Soybean plant response rating (0 to 100 scale) (soybean (Glycine max) [20]; 125 g ai/ha): 40 | Soybean plant response rating (0 to 100 scale) (soybean (Glycine max) [20]; 500 g ai/ha): 60 | Blackgrass plant response rating (0 to 100 scale) ([21]; 125 g ai/ha): 90 | Blackgrass plant response rating (0 to 100 scale) ([21]; 500 g ai/ha): 100 | Barnyardgrass plant response rating (0 to 100 scale) ([22]; 125 g ai/ha): 100 | Barnyardgrass plant response rating (0 to 100 scale) ([22]; 500 g ai/ha): 100 | Kochia plant response rating (0 to 100 scale) (kochia (Bassia scoparia) [23]; 125 g ai/ha): 80 | Kochia plant response rating (0 to 100 scale) (kochia (Bassia scoparia) [23]; 500 g ai/ha): 90 | Ryegrass, Italian plant response rating (0 to 100 scale) ([24]; 125 g ai/ha): 90 | Ryegrass, Italian plant response rating (0 to 100 scale) ([24]; 500 g ai/ha): 90 | Amaranth, Palmer plant response rating (0 to 100 scale) ([25]; 125 g ai/ha): 100 | Amaranth, Palmer plant response rating (0 to 100 scale) ([25]; 500 g ai/ha): 100 | Corn plant response rating (0 to 100 scale) (corn (Zea mays) [26]; 125 g ai/ha): 80 | Corn plant response rating (0 to 100 scale) (corn (Zea mays) [26]; 500 g ai/ha): 90 | Oat, Wild plant response rating (0 to 100 scale) ([27]; 125 g ai/ha): 90 | Oat, Wild plant response rating (0 to 100 scale) ([27]; 500 g ai/ha): 90
